ChEMBL document CHEMBL3885861, “Open TG-GATES”

Species: Rattus norvegicus
Assay: Open TG-GATES - Regimen: Single
Format: toxicity, organism-based, Sprague-Dawley
Design: regimen Single, gender Male, age 6 weeks
Conditions: in vivo, po, 1000 mg/kg, route gavage, dose level High; for APTT / Bas / Eos / Fbg / Hb / Ht / Lym / MCH / MCHC / MCV / Mono / Neu / PT / Plat / RBC / Ret / WBC: tissue Blood; for KIDNEY_L / KIDNEY_R / KIDNEY_TOTAL: tissue Kidney; for LIVER: tissue Liver; for A/G / ALP / ALT / AST / BUN / CRE / Ca / Cl / DBIL / GLC / IP / K / LDH / Na / PL / RALB / TBIL / TC / TG / TP / gamma-GTP: tissue Plasma

COc1ccc(Cl)cc1C(=O)NCCc1ccc(S(=O)(=O)NC(=O)NC2CCCCC2)cc1 [GLYBURIDE] was tested, and the TERMINAL_BW (3 h) was 216.5 g, the APTT (3 h) was 18.9 s and the Bas (3 h) was 0%. For the same compound, the Eos (3 h) was 1%, the Fbg (3 h) was 226.2 mg/dL and the Hb (3 h) was 13.2 g/dL. It also gave a Ht (3 h) of 40.8%, a Lym (3 h) of 69.2% and an MCH (3 h) of 20.3 pg. It also gave an MCHC (3 h) of 32.5%, an MCV (3 h) of 62.6 fL and a Mono (3 h) of 4%. For the same compound, the Neu (3 h) was 25%, the PT (3 h) was 12.6 s and the Plat (3 h) was 118.1 x10_4/uL. It also gave an RBC (3 h) of 651.8 x10_4/ul, a Ret (3 h) of 7.9% and a WBC (3 h) of 75.5 x10_2/uL. The KIDNEY_L (3 h) was 0.9 g, the KIDNEY_R (3 h) was 1 g and the KIDNEY_TOTAL (3 h) was 1.9 g. It also gave an LIVER (3 h) of 9.5 g, an A/G (3 h) of 1.6 and an ALP (3 h) of 1086.8 IU/L. For the same compound, the ALT (3 h) was 43.2 IU/L, the AST (3 h) was 67.2 IU/L and the BUN (3 h) was 13.2 mg/dL. The CRE (3 h) was 0.3 mg/dL, the Ca (3 h) was 10.7 mg/dL and the Cl (3 h) was 104.4 meq/L. The DBIL (3 h) was 0.2 mg/dL, the GLC (3 h) was 125.4 mg/dL and the IP (3 h) was 7.8 mg/dL. For the same compound, the K (3 h) was 3.7 meq/L, the LDH (3 h) was 172.8 IU/L and the Na (3 h) was 141.8 meq/L. The PL (3 h) was 178.6 mg/dL, the RALB (3 h) was 3.4 g/dL and the TBIL (3 h) was 0.2 mg/dL. For the same compound, the TC (3 h) was 85.2 mg/dL, the TG (3 h) was 123 mg/dL and the TP (3 h) was 5.5 g/dL. The gamma-GTP (3 h) was 1.8 IU/L, the TERMINAL_BW (6 h) was 217.2 g and the APTT (6 h) was 19.4 s. For the same compound, the Bas (6 h) was 0%, the Eos (6 h) was 0.8% and the Fbg (6 h) was 240.8 mg/dL. The Hb (6 h) was 13.6 g/dL, the Ht (6 h) was 41.3% and the Lym (6 h) was 79.4%. It also gave an MCH (6 h) of 20.7 pg, an MCHC (6 h) of 32.9% and an MCV (6 h) of 62.9 fL. The Mono (6 h) was 2.8%, the Neu (6 h) was 16.2% and the PT (6 h) was 12.6 s. For the same compound, the Plat (6 h) was 128.9 x10_4/uL, the RBC (6 h) was 657 x10_4/ul and the Ret (6 h) was 8.2%. For the same compound, the WBC (6 h) was 91.7 x10_2/uL, the KIDNEY_L (6 h) was 1 g and the KIDNEY_R (6 h) was 1 g. It also gave a KIDNEY_TOTAL (6 h) of 1.9 g, an LIVER (6 h) of 9.7 g and an A/G (6 h) of 1.6. For the same compound, the ALP (6 h) was 948.2 IU/L, the ALT (6 h) was 38.4 IU/L and the AST (6 h) was 65.4 IU/L. It also gave a BUN (6 h) of 12.4 mg/dL, a CRE (6 h) of 0.4 mg/dL and a Ca (6 h) of 10.6 mg/dL. It also gave a Cl (6 h) of 104.2 meq/L, a DBIL (6 h) of 0.1 mg/dL and a GLC (6 h) of 155.8 mg/dL. It also gave an IP (6 h) of 8.7 mg/dL, a K (6 h) of 3.6 meq/L and an LDH (6 h) of 169.2 IU/L. The Na (6 h) was 141.8 meq/L, the PL (6 h) was 154 mg/dL and the RALB (6 h) was 3.5 g/dL. For the same compound, the TBIL (6 h) was 0.2 mg/dL, the TC (6 h) was 82.4 mg/dL and the TG (6 h) was 86.4 mg/dL. The TP (6 h) was 5.7 g/dL and the gamma-GTP (6 h) was 1.6 IU/L.
